Experiment in all cases: growth of human tumour cells (NCI), 48 h
For test [1], the system named is 786-0.
In test [2] the test system is A549.
Test [3] has as its system ACHN.
Test [4] has as its system DU-145.
Test [5] has as its system HCC 2998.
Test [6] deals with HOP-92.
Test [7] has as its system KM12.
In test [8] the test system is LOX IMVI.
Test [9] has as its system MDA-MB-231.
Test [10] has as its system MOLT-4.
Test [11] has as its system Malme-3M.
Test [12] relates to NCI-H23.
In test [13] the test system is OVCAR-8.
The subject of test [14] is SF-295.
Test [15] has as its system SF-539.
Test [16] relates to SK-MEL-28.
Test [17] deals with SK-MEL-5.
The subject of test [18] is SNB-19.
Test [19] concerns SR.
The subject of test [20] is UO-31.

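Five compound concentrations were applied to cells in 96-well plates for 48 hours; endpoints were derived by simple linear interpolation of the resulting dose-response curve. Here, GI50 denotes the concentration required for 50% inhibition of growth.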 Activity calls are given as the source filed them. Cut-off read from the data, not from the text of the source: active = GI50 up to about 1.1 µM and inactive = higher.

On to `COc1cc(C(=O)Nc2nnc(S(N)(=O)=O)s2)cc(OC)c1OC`, for which the GI50 in test [1] is > 100 µM (inactive); in test [2] it was > 100 µM (inactive); in test [3] it was > 100 µM (inactive); in [4], > 100 µM (inactive); in test [5], > 100 µM (inactive); in test [6], 65.6 µM (inactive). The GI50 in test [7], in test [8], in test [9], in test [10], in test [11] and in [12] was > 100 µM (inactive) each time. The GI50 in [13], in [14], in test [15], in test [16], in test [17] and in [18] was > 100 µM (inactive) throughout. The GI50 in test [19] and in test [20] was > 100 µM (inactive) throughout.
For `C=CCOC(=O)[C@@H]1C[C@@H](OC(C)(C)C)CN1C(=O)[C@@H]1[C@H]2OC(C)(C)O[C@H]2CN1C(=O)OCC1c2ccccc2-c2ccccc21`, the GI50 in test [1] is 5.46 µM (inactive); in test [2] it was 15.3 µM (inactive); in [3], 15.9 µM (inactive); in test [4], 3.45 µM (inactive); in test [5] it was 17.1 µM (inactive); in test [6], 18.1 µM (inactive). For the same molecule, the GI50 was 2.86 µM (inactive) in test [7]; 2.3 µM (inactive) in test [8]; 17.9 µM (inactive) in [9]; 15.6 µM (inactive) in test [10]; 18.2 µM (inactive) in [11]; 17.6 µM (inactive) in test [12]. The GI50 in test [13] is 5.87 µM (inactive); in test [14] it was 17.9 µM (inactive); in test [15], 14.8 µM (inactive); in test [16], 18.1 µM (inactive); in [17] it was 18.9 µM (inactive); in test [18] it was 16.9 µM (inactive). For the same molecule, the GI50 in [19] is 8.05 µM (inactive); in test [20], 0.15 µM (active).
Regarding `O=c1c2ccccc2c2ccccc2c(=O)n1Cc1ccc2c(c1)OCO2`, the GI50 in test [1] is 27 µM (inactive); in [2], 32.1 µM (inactive); in test [3] it was 45.4 µM (inactive); in [4], 49.9 µM (inactive); in test [5] it was 25.1 µM (inactive); in test [6] it was > 94.8 µM (inactive). The GI50 was 19.5 µM (inactive) in test [7]; 40 µM (inactive) in test [8]; > 96.2 µM (inactive) in [9]; 12.9 µM (inactive) in [10]; 67.9 µM (inactive) in [11]; 24.7 µM (inactive) in test [12]. The GI50 in [13] is 45.7 µM (inactive); in test [14], 35.4 µM (inactive); in [15] it was 27.1 µM (inactive); in [16] it was 56.6 µM (inactive); in test [17], 20.3 µM (inactive); in [18], 52.1 µM (inactive). In addition, the GI50 in [19] was 4.91 µM (inactive); in test [20], 49.5 µM (inactive).
Consider `O=C1OC(OC/C(Br)=C(/Br)COC2OC(=O)C(Cl)=C2Cl)C(Cl)=C1Cl` (stereo not given), for which the GI50 in [1] was 5.82 µM (inactive); in test [2] it was 22.1 µM (inactive); in [3], 10.4 µM (inactive); in test [4], 16.1 µM (inactive); in test [5], 16.7 µM (inactive); in test [6], 9.4 µM (inactive). The GI50 in test [7] is 8.75 µM (inactive); in test [8] it was 2.69 µM (inactive); in [9] it was 7.69 µM (inactive); in test [10], 2.26 µM (inactive); in test [11], 7.57 µM (inactive); in [12], 4.21 µM (inactive). Besides, the GI50 was 6.93 µM (inactive) in test [13]; 16.1 µM (inactive) in test [14]; 21.8 µM (inactive) in [15]; 8.51 µM (inactive) in [16]; 13.4 µM (inactive) in test [17]; 18.4 µM (inactive) in test [18]. Besides, the GI50 in test [19] is 0.724 µM (active); in [20] it was 6.31 µM (inactive).
Regarding `COC(=O)[C@]1(c2cc3ccccc3n2S(=O)(=O)c2ccccc2)CC2CN(C(C)=O)C1CC2=O` (stereo not given in full), the GI50 was 1.28 µM (inactive) in [1]; 3.05 µM (inactive) in [2]; 1.91 µM (inactive) in [3]; 3.46 µM (inactive) in test [4]; 3.23 µM (inactive) in test [5]; 5.52 µM (inactive) in test [6]. Moreover, the GI50 in [7] is 2.69 µM (inactive); in [8], 1.9 µM (inactive); in test [9], 2.58 µM (inactive); in test [10], 0.855 µM (active); in test [11], 2.77 µM (inactive); in test [12], 3.1 µM (inactive). Moreover, the GI50 in test [13] is 3.43 µM (inactive); in [14], 12.6 µM (inactive); in test [15], 2.91 µM (inactive); in test [16] it was 3.94 µM (inactive); in test [17], 3.27 µM (inactive); in test [18], 3.26 µM (inactive). Also, the GI50 in test [19] was 1.59 µM (inactive); in [20], 1.82 µM (inactive).
As to `N=C(N)NS(=O)(=O)c1ccc(NNc2c3ccccc3nc3ccccc23)cc1`, the GI50 was 10.1 µM (inactive) in test [1]; 9.1 µM (inactive) in test [2]; 3.63 µM (inactive) in [3]; 2.58 µM (inactive) in test [4]; 12.4 µM (inactive) in test [5]; 2.96 µM (inactive) in test [6]. Also, the GI50 in [7] was 11.2 µM (inactive); in test [8], 3.59 µM (inactive); in test [9] it was 15.7 µM (inactive); in test [10] it was 0.472 µM (active); in test [11], 17.3 µM (inactive); in test [12] it was 9.29 µM (inactive). Besides, the GI50 was 6.38 µM (inactive) in test [13]; 13.8 µM (inactive) in test [14]; 14.3 µM (inactive) in test [15]; 13.8 µM (inactive) in test [16]; 9.31 µM (inactive) in test [17]; 8.34 µM (inactive) in [18]. The GI50 is 0.596 µM (active) in test [19] and 13.6 µM (inactive) in test [20].
Take `C/C(=N\O)c1cccc(Nc2c3ccccc3nc3occc23)c1`: the GI50 was 13.4 µM (inactive) in [1]; 4.93 µM (inactive) in test [2]; 8.07 µM (inactive) in test [3]; 14.8 µM (inactive) in test [4]; 4.89 µM (inactive) in [5]; 7.24 µM (inactive) in test [6]. For the same molecule, the GI50 was 6.11 µM (inactive) in [7]; 5.78 µM (inactive) in [8]; 4.51 µM (inactive) in test [9]; 4.25 µM (inactive) in test [10]; 2.86 µM (inactive) in [11]; 4.99 µM (inactive) in [12]. For the same molecule, the GI50 in test [13] is 13.7 µM (inactive); in test [14] it was 4.24 µM (inactive); in test [15], 4.25 µM (inactive); in test [16], 4.02 µM (inactive); in test [17], 3.07 µM (inactive); in [18], 17.1 µM (inactive). For the same molecule, the GI50 in [19] is 2.79 µM (inactive); in test [20], 7.18 µM (inactive).
In the case of `N#Cc1cc([N+](=O)[O-])ccc1NC(=O)/C(=N\NC(=O)c1ccncc1)C(c1cnc2ccc([N+](=O)[O-])cc2n1)[N+](=O)[O-]` (stereo not given), the GI50 was 2.44 µM (inactive) in test [1]; 3.64 µM (inactive) in test [2]; 2.54 µM (inactive) in [3]; 5.64 µM (inactive) in test [4]; 9.27 µM (inactive) in test [5]; 9.18 µM (inactive) in [6]. The GI50 is 2.39 µM (inactive) in test [7]; 0.759 µM (active) in test [8]; 1.99 µM (inactive) in test [9]; 7.23 µM (inactive) in test [10]; 1.31 µM (inactive) in test [11]; 0.91 µM (active) in [12]. Besides, the GI50 is 3.1 µM (inactive) in [13]; 1.78 µM (inactive) in test [14]; 2.07 µM (inactive) in test [15]; 2.17 µM (inactive) in test [16]; 0.869 µM (active) in [17]; 2.83 µM (inactive) in test [18]. Also, the figures for the GI50 in [19] and in test [20] were 4.24 µM (inactive) and 2.31 µM (inactive), respectively.
With `C=C[C@]1(O)CCC[C@]2(C)C(=O)CCC12C` (stereo not given in full), the GI50 in test [1], in test [2], in test [3], in test [4], in test [5] and in [6] was > 100 µM (inactive) in each case. Also, the GI50 in test [7], in test [8], in test [9], in test [10], in test [11] and in [12] was > 100 µM (inactive) each time. For the same molecule, the GI50 in [13], in test [14], in test [15], in test [16], in [17] and in [18] was > 100 µM (inactive) in each case. In addition, the GI50 in [19] and in [20] was > 100 µM (inactive) throughout.
With `O=c1cc(-c2ccccc2F)[nH]c2cc3c(cc12)OCO3`, the GI50 in [1] was 0.182 µM (active); in [2], 0.204 µM (active); in test [3], 0.149 µM (active); in test [4] it was 0.0399 µM (active); in test [5], 0.107 µM (active); in test [6], 0.212 µM (active). The GI50 in [7] was 0.0344 µM (active); in test [8] it was 0.119 µM (active); in [9] it was 0.29 µM (active); in test [10] it was 0.245 µM (active); in [11], 0.053 µM (active); in test [12] it was 0.35 µM (active). Moreover, the GI50 was 0.265 µM (active) in test [13]; 0.0993 µM (active) in test [14]; 0.0702 µM (active) in [15]; > 32.9 µM (inactive) in test [16]; 0.0211 µM (active) in test [17]; 0.202 µM (active) in [18]. Besides, the GI50 is 0.0147 µM (active) in test [19] and 0.711 µM (active) in test [20].

For the origin of these results see ChEMBL document CHEMBL1201862, “PubChem BioAssay data set” (2004).
